Results reported in patent publication US10676443B2, “Method for producing (4S)-4-[4-cyano-2-(methylsulfonyl)phenyl]-3,6-dimethyl-2-oxo-1-[3-(trifluoromethyl)phenyl]-1,2,3,4-tetrahydro pyrimidine-5-carbonitrile” (pH Pharma Co., Ltd., priority 2015, dated 2020).

Assay: stability of crystal form (A) on storage, even at high humidity
Assay type: physicochemical
Settings: solid crystal form (A)

CC1=C(C#N)[C@@H](c2ccc(C#N)cc2S(C)(=O)=O)N(C)C(=O)N1c1cccc(C(F)(F)F)c1 [crystal form (A), (S)-4-[4-cyano-2-(methylsulfonyl)phenyl]-3,6-dimethyl-2-oxo-1-[3-(trifluoromethyl)phenyl]-1,2,3,4-tetrahydropyrimidine-5-carbonitrile]
stability properties (even at high humidity): very good | storage time with no loss of stability (storage): more than 3 years
